Results: patent publication US20120258980A1, “Antibacterial Agent for Drug-Resistant Bacteria, Method for Screening for Same, and Use of Same” (priority 2009, published 2012)
Converted amounts (≈) assume the structure as drawn. Where two headings read alike, the source gives them in different places.

Columns and labels:
[1] = test system: VISA clinical isolates of MRSA (VI-MRSA) and of MSSA (VI-MSSA); experiment: microbe, parasite or virus in culture; format: cell-based, Staphylococcus aureus; details: Staphylococcus aureus
How it was run: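 Strains were grown overnight at 37° C in TSB, adjusted in CAMHB to 0.3 absorbance at 578 nm and diluted 500-fold before equal-volume addition to compound dilutions.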

[2] = test system: methicillin-susceptible S. aureus (MSSA), MRSA and mutants thereof; experiment: MIC measurement, Test Example 3 (MSSA, MRSA and sequential gyrA/grlA quinolone-resistant mutants); format: cell-based, Staphylococcus aureus; details: Staphylococcus aureus
From the text: That is, the first-step quinolone-resistant mutants are bacterial strains which are the same as their parent strains (clinical isolates) except that the genes shown in the corresponding parts of Table 1-1 are mutated. The second-step quinolone-resistant mutants are bacterial strains which are the same as the first-step quinolone-resistant mutants except that the genes shown in the corresponding parts of Table 1-1 are further mutated. The third-step quinolone-resistant mutants are bacterial strains which are the same as the second-step quinolone-resistant mutants except that the genes shown in the corresponding parts of Table 1-1 are further mutated. The fourth-step quinolone-resistant strain is a bacterial strain which is the same as the third-step quinolone-resistant mutant bacteria except that the gene shown in the corresponding part of Table 1-1 is further mutated.
Each of the bacterial strains listed in Table 1-1 was shake-cultured at 37° C. overnight in 4 mL of a medium (Tryptical Soy Broth: TSB, product of Becton Dickinson and Company). FDA209P was used as a control.
After completion of culturing, the resultant culture was suspended in a cation-adjusted Mueller Hinton Broth (CAMHB, product of Becton Dickinson and Company). Then, the obtained bacterial culture was adjusted in absorbance with the CAMHB so that the absorbance at 578 nm of the bacterial culture was adjusted to 0.3 measured by an absorption spectrometer. In addition, the resultant bacterial culture was 500-fold diluted with the CAMHB.
Each of the 500-fold diluted, pre-cultured bacterial cultures was added at 50 μL/well to the CAMHB containing the quinolones and the nybomycins at various concentrations (50 μL/well), followed by statically culturing at 37° C. overnight.
After completion of culturing, the growth of the bacteria was visually determined based on turbidity to measure MIC in each bacterial strain.

## C[C@H]1COc2c(N3CCN(C)CC3)c(F)cc3c(=O)c(C(=O)O)cn1c23 [LVFX, levofloxacin]
[1]; AMC11094, VI-MRSA, Korea
  MIC: 16 µg/mL (≈ 44.3 µM)
[1]; B7 (JCSC4852), VI-MRSA, Taiwan
  MIC: 8 µg/mL (≈ 22.1 µM)
[1]; BR1, VI-MRSA, Brazil
  MIC: 16 µg/mL (≈ 44.3 µM)
[1]; BR2, VI-MRSA, Brazil
  MIC: 8 µg/mL (≈ 22.1 µM)
[1]; BR3, VI-MRSA, Brazil
  MIC: 16 µg/mL (≈ 44.3 µM)
[1]; BR4, VI-MRSA, Brazil
  MIC: 8 µg/mL (≈ 22.1 µM)
[1]; BR5, VI-MRSA, Brazil
  MIC: 16 µg/mL (≈ 44.3 µM)
[1]; HIP06297, VI-MRSA, America
  MIC: 4 µg/mL (≈ 11.1 µM)
[1]; HIP06854, VI-MRSA, America
  MIC: 16 µg/mL (≈ 44.3 µM)
[1]; HIP07920, VI-MRSA, America
  MIC: 8 µg/mL (≈ 22.1 µM)
[1]; HIP07930, VI-MRSA, America
  MIC: 32 µg/mL (≈ 88.6 µM)
[1]; HIP08926, VI-MRSA, America
  MIC: 16 µg/mL (≈ 44.3 µM)
[1]; HIP09143, VI-MRSA, America
  MIC: 32 µg/mL (≈ 88.6 µM)
[1]; HIP09313, VI-MRSA, America
  MIC: 8 µg/mL (≈ 22.1 µM)
[1]; HIP09433, VI-MRSA, America
  MIC: 32 µg/mL (≈ 88.6 µM)
[1]; HIP09662, VI-MRSA, America
  MIC: 32 µg/mL (≈ 88.6 µM)
[1]; HIP09735, VI-MRSA, America
  MIC: 8 µg/mL (≈ 22.1 µM)
[1]; HIP09737, VI-MSSA, America
  MIC: 32 µg/mL (≈ 88.6 µM)
[1]; HIP09740, VI-MRSA, America
  MIC: 32 µg/mL (≈ 88.6 µM)
[1]; HIP10267, VI-MRSA, America
  MIC: 32 µg/mL (≈ 88.6 µM)
[1]; HIP10540, VI-MRSA, America
  MIC: 8 µg/mL (≈ 22.1 µM)
[1]; HIP12864, VI-MRSA, America
  MIC: 32 µg/mL (≈ 88.6 µM)
[1]; HIP13036, VI-MRSA, America
  MIC: 4 µg/mL (≈ 11.1 µM)
[1]; HIP13057, VI-MRSA, America
  MIC: 16 µg/mL (≈ 44.3 µM)
[1]; IL (HIP7737), VI-MRSA, America
  MIC: 32 µg/mL (≈ 88.6 µM)
[1]; JCSC7193, VI-MRSA, Thailand
  MIC: 16 µg/mL (≈ 44.3 µM)
[1]; JCSC7195, VI-MRSA, Thailand
  MIC: 32 µg/mL (≈ 88.6 µM)
[1]; JCSC7203, VI-MRSA, Thailand
  MIC: 16 µg/mL (≈ 44.3 µM)
[1]; LIM2, VI-MRSA, France
  MIC: 32 µg/mL (≈ 88.6 µM)
[1]; LY-1999-01, VI-MSSA, Oman
  MIC: 4 µg/mL (≈ 11.1 µM)
[1]; LY-1999-03, VI-MRSA, Oman
  MIC: 4 µg/mL (≈ 11.1 µM)
[1]; MI (HIP5827), VI-MRSA, America
  MIC: 32 µg/mL (≈ 88.6 µM)
[1]; MRSA / MSSA / NRS 76 / VISA, NRS76, VI-MSSA, America
  MIC: 16 µg/mL (≈ 44.3 µM)
[1]; MRSA / MSSA / NRS 79 / VISA, NRS79, VI-MRSA, America
  MIC: 64 µg/mL (≈ 177 µM)
[1]; MRSA / MSSA / NRS 118 / VISA, NRS118, VI-MRSA, America
  MIC: 32 µg/mL (≈ 88.6 µM)
[1]; MRSA / MSSA / NRS 126 / VISA, NRS126, VI-MRSA, America
  MIC: 4 µg/mL (≈ 11.1 µM)
[1]; Mu3, VI-MRSA, Japan
  MIC: 16 µg/mL (≈ 44.3 µM)
[1]; Mu50, VI-MRSA, Japan
  MIC: 8 µg/mL (≈ 22.1 µM)
[1]; NJ (HIP5836), VI-MRSA, America
  MIC: 16 µg/mL (≈ 44.3 µM)
[1]; P1V44, VI-MSSA, Belgium
  MIC: 4 µg/mL (≈ 11.1 µM)
[1]; PC, VI-MRSA, America
  MIC: 8 µg/mL (≈ 22.1 µM)
[1]; SA MER-S6, VI-MSSA, France
  MIC: 0.5 µg/mL (≈ 1.38 µM)
[1]; SA MER-S12, VI-MSSA, France
  MIC: 0.5 µg/mL (≈ 1.38 µM)
[1]; SA MER-S20, VI-MSSA, France
  MIC: 0.125 µg/mL (≈ 0.346 µM)
[2]; FDA209P / MRSA / MSSA, FDA209P (MSSA), control, read-out: MIC
  MIC: ≤ 0.063 µg/mL
[2]; MR5867-4, fourth-step mutant, further gyrA E88K
  MIC: > 128 µg/mL
[2]; MS5935-3, third-step mutant, further grlA E84K
  MIC: 64 µg/mL (≈ 177 µM)
[2]; MS5952-3, third-step mutant, further grlA A116V
  MIC: 32 µg/mL (≈ 88.6 µM)
